From ChEMBL document CHEMBL1201862, “PubChem BioAssay data set” (2004)
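Growth conditions: 96-well plates. Treatment: test compound, 48 hours, 5 concentrations. Analysis: linear interpolation between bracketing concentrations; unreached endpoints set to highest concentration. GI50 = concentration required for 50% inhibition of growth.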 The source made the active and inactive calls. Cut-off read from the data, not from the text of the source: active = GI50 up to about 1.1 µM and inactive = higher.

Key:
Test in all cases: growth of human tumour cells (NCI), 48 h
A549 = system: A549
DU-145 = system: DU-145
HL-60 = system: HL-60
HOP-62 = system: HOP-62
KM12 = system: KM12
M14 = system: M14
MDA-N = system: MDA-N
Malme-3M = system: Malme-3M
NCI/ADR-RES = system: NCI/ADR-RES
OVCAR-3 = system: OVCAR-3
OVCAR-5 = system: OVCAR-5
RPMI-8226 = system: RPMI-8226
SF-539 = system: SF-539
SK-MEL-2 = system: SK-MEL-2
SK-MEL-5 = system: SK-MEL-5
SW-620 = system: SW-620
UACC-62 = system: UACC-62
OVCAR-8 = system: OVCAR-8
SK-OV-3 = system: SK-OV-3
UACC-257 = system: UACC-257

Row | SMILES | GI50 (A549) | GI50 (DU-145) | GI50 (HL-60) | GI50 (HOP-62) | GI50 (KM12) | GI50 (M14) | GI50 (MDA-N) | GI50 (Malme-3M) | GI50 (NCI/ADR-RES) | GI50 (OVCAR-3) | GI50 (OVCAR-5) | GI50 (RPMI-8226) | GI50 (SF-539) | GI50 (SK-MEL-2) | GI50 (SK-MEL-5) | GI50 (SW-620) | GI50 (UACC-62) | GI50 (OVCAR-8) | GI50 (SK-OV-3) | GI50 (UACC-257)
1 | COc1ccc(/C=C2\CN(C)C/C(=C\c3ccc(OC)cc3)C2=O)cc1 | > 100 µM (inactive) | > 100 µM (inactive) | > 100 µM (inactive) | > 100 µM (inactive) | > 100 µM (inactive) | > 100 µM (inactive) | > 100 µM (inactive) | > 100 µM (inactive) | > 100 µM (inactive) | > 100 µM (inactive) | > 100 µM (inactive) | > 100 µM (inactive) | > 100 µM (inactive) | > 100 µM (inactive) | 32.8 µM (inactive) | > 100 µM (inactive) | > 100 µM (inactive) | – | – | –
2 | O=C(O)[C@H]1[C@@H](C2CCCCC2)O[C@@H](C2CCCCC2)O[C@H]1C(F)(F)F | 20.9 µM (inactive) | 41.8 µM (inactive) | 26.9 µM (inactive) | 24 µM (inactive) | 22.2 µM (inactive) | 17.9 µM (inactive) | 16.9 µM (inactive) | 28.6 µM (inactive) | 40.6 µM (inactive) | 20.4 µM (inactive) | 20.2 µM (inactive) | 23.9 µM (inactive) | 35.7 µM (inactive) | – | 20.7 µM (inactive) | 19.8 µM (inactive) | 18.5 µM (inactive) | 22 µM (inactive) | 38.9 µM (inactive) | 32.7 µM (inactive)
3 | CCOC(=O)C#Cc1cccc(C#CC(=O)OCC)c1 | 6.53 µM (inactive) | 6.52 µM (inactive) | 1.8 µM (inactive) | 5.69 µM (inactive) | 6.65 µM (inactive) | 2.13 µM (inactive) | 2.32 µM (inactive) | 5.14 µM (inactive) | 6.05 µM (inactive) | 6.07 µM (inactive) | 1.14 µM (inactive) | 4.71 µM (inactive) | 5.14 µM (inactive) | 2.19 µM (inactive) | 4.25 µM (inactive) | 5.25 µM (inactive) | 4.94 µM (inactive) | 6.98 µM (inactive) | 7.55 µM (inactive) | 10.2 µM (inactive)
4 | COc1cc2[nH]c(=O)c3cc(C)cc4c(Cl)nc(c1OC)c2c43 | 45.7 µM (inactive) | 61.8 µM (inactive) | 18.8 µM (inactive) | 23.6 µM (inactive) | 96.6 µM (inactive) | > 100 µM (inactive) | > 100 µM (inactive) | 18 µM (inactive) | > 100 µM (inactive) | > 100 µM (inactive) | > 100 µM (inactive) | 34.9 µM (inactive) | 29.9 µM (inactive) | 32.9 µM (inactive) | 55.6 µM (inactive) | > 100 µM (inactive) | 28.3 µM (inactive) | 95.9 µM (inactive) | 37.9 µM (inactive) | > 100 µM (inactive)
5 | COc1ccc(SC(C)(SC)c2ccccn2)c(OC)n1 (stereo not given) | 79.4 µM (inactive) | > 100 µM (inactive) | 3.24 µM (inactive) | > 100 µM (inactive) | 79.1 µM (inactive) | > 100 µM (inactive) | 84.1 µM (inactive) | 71.1 µM (inactive) | 53.6 µM (inactive) | 52.8 µM (inactive) | > 100 µM (inactive) | 23.3 µM (inactive) | > 100 µM (inactive) | 30.8 µM (inactive) | 37.4 µM (inactive) | > 100 µM (inactive) | 87.3 µM (inactive) | 75.7 µM (inactive) | – | 67.3 µM (inactive)
6 | COC(=O)c1c(O)ccc2c1c1c(n2Cc2ccc(OC)cc2)C(=O)c2ccccc2C1=O | 4.91 µM (inactive) | 18.2 µM (inactive) | 0.308 µM (active) | 16.3 µM (inactive) | 15.6 µM (inactive) | 10.7 µM (inactive) | 12.5 µM (inactive) | 39.9 µM (inactive) | 7.21 µM (inactive) | 16.1 µM (inactive) | 25.4 µM (inactive) | 0.168 µM (active) | 14.4 µM (inactive) | 11.3 µM (inactive) | – | 18.6 µM (inactive) | – | 2.4 µM (inactive) | 15.6 µM (inactive) | 26.3 µM (inactive)
7 | COc1cc(NC(C)CCCN)c2nccc(C)c2c1 (stereo not given) | 55.7 µM (inactive) | 48.3 µM (inactive) | 2.81 µM (inactive) | 17.1 µM (inactive) | 17.5 µM (inactive) | 18.9 µM (inactive) | 18.9 µM (inactive) | 20 µM (inactive) | 11.6 µM (inactive) | 23.1 µM (inactive) | 96.4 µM (inactive) | 20.9 µM (inactive) | 17.5 µM (inactive) | 19.2 µM (inactive) | 25.7 µM (inactive) | – | 19.9 µM (inactive) | – | 28.4 µM (inactive) | –
